Results: the NIST ThermoML archive (doi:10.1016/j.jct.2016.01.008)
± gives the expanded uncertainty stated by the source.

Conditions: Liquid; for mass density: 298.15 K, 101.33 kPa, Vibrating tube method; for Normal boiling temperature: Ebulliometric method (Recirculating still)

mass density [kg/m3] | Normal boiling temperature [°C] | SMILES
920.68 ± 0.12 | 176.1 ± 0.4 | CC12CCC(CC1)C(C)(C)O2 [1,3,3-trimethyl-2-oxabicyclo[2.2.2]octane]
785.27 ± 0.15 | 78.2 ± 0.4 | CCO [ethanol]
